Consider five molecules from ChEMBL document CHEMBL4130363, “Synthesis and pharmacological evaluation of benzamide derivatives as potent and selective sigma-1 protein ligands” (Eur J Med Chem, 2017).

For orientation: inhibition means the change of the read-out against control, counted positive when it falls.

Common to all, as to assay type: functional
Assay [1] has as its target 5-hydroxytryptamine receptor 2A (Homo sapiens) (UniProt P28223). In words: Agonist activity at recombinant human 5-HT2A at 10 uM by aequorin reporter based assay relative to agonist.
Assay [2] addresses T1, Muscarinic acetylcholine receptor M1 (Homo sapiens) (UniProt P11229).
T1 sequence (whole entry): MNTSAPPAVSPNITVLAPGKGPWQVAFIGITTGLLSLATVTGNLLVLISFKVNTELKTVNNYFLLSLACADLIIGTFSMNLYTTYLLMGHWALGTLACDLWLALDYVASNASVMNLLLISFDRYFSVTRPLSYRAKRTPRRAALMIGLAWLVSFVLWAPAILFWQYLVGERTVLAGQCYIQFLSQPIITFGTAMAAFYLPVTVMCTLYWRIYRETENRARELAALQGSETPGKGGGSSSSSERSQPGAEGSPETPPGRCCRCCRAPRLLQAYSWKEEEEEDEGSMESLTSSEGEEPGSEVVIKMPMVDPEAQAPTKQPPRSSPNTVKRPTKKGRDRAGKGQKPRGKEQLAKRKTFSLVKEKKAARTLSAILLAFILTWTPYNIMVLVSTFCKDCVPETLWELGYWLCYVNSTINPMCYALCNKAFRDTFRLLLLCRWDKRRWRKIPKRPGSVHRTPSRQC
In words: Agonist activity at recombinant human muscarinic M1 receptor at 10 uM by aequorin reporter based assay relative to agonist.

Assay [3] concerns the target T2, Alpha-2A adrenergic receptor (Homo sapiens) (UniProt P08913).
T2 sequence (whole entry): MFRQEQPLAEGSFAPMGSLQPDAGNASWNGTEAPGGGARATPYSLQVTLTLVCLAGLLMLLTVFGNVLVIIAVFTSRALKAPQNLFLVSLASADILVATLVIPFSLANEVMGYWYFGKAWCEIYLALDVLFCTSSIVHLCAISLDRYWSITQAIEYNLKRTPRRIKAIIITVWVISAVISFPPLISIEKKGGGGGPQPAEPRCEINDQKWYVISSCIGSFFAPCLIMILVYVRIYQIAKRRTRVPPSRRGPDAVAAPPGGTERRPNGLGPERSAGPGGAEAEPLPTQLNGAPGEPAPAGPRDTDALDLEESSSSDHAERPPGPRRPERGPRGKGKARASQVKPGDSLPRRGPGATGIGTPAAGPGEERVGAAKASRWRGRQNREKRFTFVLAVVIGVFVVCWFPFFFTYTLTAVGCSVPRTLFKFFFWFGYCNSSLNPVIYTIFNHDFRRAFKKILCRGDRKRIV
In words: Agonist activity at recombinant human alpha-2a adrenergic receptor at 10 uM by GTPgamma[35S] binding-based assay relative to agonist.

Assay [4] deals with Beta-2 adrenergic receptor (Homo sapiens) (UniProt P07550). In words: Agonist activity at recombinant human beta-2 adrenergic receptor assessed as induction of cAMP levels at 10 uM by HTRF assay relative to agonist. In general terms: cAMP levels reflect the balance of adenylyl cyclase and phosphodiesterase activity.
Sequence of Beta-2 adrenergic receptor (Homo sapiens) (P07550 whole entry, looked up): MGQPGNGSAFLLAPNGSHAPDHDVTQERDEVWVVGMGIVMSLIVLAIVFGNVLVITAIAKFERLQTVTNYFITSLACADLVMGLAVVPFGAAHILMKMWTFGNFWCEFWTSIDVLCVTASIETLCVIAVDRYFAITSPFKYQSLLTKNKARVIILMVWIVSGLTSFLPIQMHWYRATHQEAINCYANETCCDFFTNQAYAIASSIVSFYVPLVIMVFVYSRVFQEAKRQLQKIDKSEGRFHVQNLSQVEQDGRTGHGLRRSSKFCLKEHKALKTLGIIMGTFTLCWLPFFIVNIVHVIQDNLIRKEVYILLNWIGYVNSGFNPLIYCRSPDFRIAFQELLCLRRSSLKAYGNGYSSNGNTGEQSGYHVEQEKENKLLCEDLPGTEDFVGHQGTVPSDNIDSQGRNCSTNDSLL
In assay [5] the target is Substance-P receptor (Homo sapiens) (UniProt P25103). Briefly: Antagonist activity at recombinant human NK1R assessed as inhibition of agonist-induced effect at 10 uM by aequorin reporter based assay.
Sequence of Substance-P receptor (Homo sapiens) (P25103 whole entry): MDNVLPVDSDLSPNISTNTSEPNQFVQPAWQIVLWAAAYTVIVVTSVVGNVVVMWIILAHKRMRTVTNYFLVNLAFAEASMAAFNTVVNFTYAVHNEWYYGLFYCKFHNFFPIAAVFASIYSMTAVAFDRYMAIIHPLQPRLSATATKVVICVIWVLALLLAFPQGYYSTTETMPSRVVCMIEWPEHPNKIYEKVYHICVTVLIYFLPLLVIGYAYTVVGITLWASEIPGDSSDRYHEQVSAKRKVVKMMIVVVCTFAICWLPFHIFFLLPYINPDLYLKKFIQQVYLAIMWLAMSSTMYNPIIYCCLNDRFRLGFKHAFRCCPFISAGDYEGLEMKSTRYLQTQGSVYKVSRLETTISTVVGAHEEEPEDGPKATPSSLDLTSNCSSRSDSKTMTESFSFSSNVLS
Assay [6] addresses T3, Muscarinic acetylcholine receptor M4 (Homo sapiens) (UniProt P08173).
T3 sequence (whole entry): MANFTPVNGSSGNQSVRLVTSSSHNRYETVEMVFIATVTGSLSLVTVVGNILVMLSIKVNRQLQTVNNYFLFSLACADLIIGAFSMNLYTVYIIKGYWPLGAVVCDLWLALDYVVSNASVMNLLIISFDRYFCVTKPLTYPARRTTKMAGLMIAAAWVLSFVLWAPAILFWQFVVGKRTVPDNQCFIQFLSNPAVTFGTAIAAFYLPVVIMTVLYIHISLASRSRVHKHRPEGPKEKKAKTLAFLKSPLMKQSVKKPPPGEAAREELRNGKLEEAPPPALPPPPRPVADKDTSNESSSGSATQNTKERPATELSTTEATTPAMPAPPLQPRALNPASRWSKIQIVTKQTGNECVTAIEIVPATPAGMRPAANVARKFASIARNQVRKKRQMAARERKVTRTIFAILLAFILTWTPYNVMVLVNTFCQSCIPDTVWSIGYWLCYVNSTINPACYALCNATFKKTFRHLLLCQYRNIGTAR
In words: Antagonist activity at human muscarinic M4 receptor assessed as inhibition of agonist-induced effect at 10 uM by GTPgamma[35S] binding-based assay. (In general: Binding of GTPγS marks nucleotide exchange on a G protein.)

In assay [7] the target is Adenosine receptor A2a (Homo sapiens) (UniProt P29274). In words: Antagonist activity at recombinant human adenosine A2A receptor assessed as inhibition of agonist-induced cAMP induction at 10 uM by HTRF assay. (In general: TR-FRET usually uses a lanthanide donor and a delayed reading to cut background.)
Sequence of Adenosine receptor A2a (Homo sapiens) (P29274 whole entry): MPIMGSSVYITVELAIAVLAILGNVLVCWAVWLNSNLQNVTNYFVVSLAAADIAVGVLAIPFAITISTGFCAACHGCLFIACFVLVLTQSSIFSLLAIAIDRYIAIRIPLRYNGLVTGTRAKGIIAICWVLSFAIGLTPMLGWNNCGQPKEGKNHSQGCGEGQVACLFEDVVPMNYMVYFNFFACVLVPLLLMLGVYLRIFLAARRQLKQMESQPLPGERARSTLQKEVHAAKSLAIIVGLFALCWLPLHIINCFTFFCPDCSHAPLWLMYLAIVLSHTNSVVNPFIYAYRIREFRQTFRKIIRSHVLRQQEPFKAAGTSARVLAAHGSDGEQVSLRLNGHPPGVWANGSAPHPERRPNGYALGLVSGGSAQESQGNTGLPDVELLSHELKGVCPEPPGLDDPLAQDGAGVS
Assay [8] addresses T4, Alpha-1A adrenergic receptor (Homo sapiens) (UniProt P35348).
T4 sequence (whole entry): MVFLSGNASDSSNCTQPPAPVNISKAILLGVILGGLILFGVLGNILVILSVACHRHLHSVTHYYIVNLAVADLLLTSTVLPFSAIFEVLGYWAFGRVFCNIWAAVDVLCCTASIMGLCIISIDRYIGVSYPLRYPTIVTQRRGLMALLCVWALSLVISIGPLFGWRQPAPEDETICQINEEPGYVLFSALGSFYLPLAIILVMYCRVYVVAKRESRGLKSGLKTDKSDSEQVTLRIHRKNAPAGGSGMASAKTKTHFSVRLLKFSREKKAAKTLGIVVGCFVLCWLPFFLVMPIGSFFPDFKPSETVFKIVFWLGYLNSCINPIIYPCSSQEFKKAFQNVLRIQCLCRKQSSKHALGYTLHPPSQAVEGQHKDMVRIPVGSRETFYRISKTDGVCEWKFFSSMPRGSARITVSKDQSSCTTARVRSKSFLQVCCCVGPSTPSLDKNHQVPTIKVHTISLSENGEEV
In words: Agonist activity at recombinant human alpha-1a adrenergic receptor […] at 10 uM by aequorin reporter based assay relative to agonist.

Assay [9] deals with Somatostatin receptor type 4 (Homo sapiens) (UniProt P31391). In words: Antagonist activity at human somatostatin receptor 4 assessed as inhibition of agonist-induced effect at 10 uM by GTPgamma[35S] binding-based assay.
Sequence of Somatostatin receptor type 4 (Homo sapiens) (P31391 whole entry): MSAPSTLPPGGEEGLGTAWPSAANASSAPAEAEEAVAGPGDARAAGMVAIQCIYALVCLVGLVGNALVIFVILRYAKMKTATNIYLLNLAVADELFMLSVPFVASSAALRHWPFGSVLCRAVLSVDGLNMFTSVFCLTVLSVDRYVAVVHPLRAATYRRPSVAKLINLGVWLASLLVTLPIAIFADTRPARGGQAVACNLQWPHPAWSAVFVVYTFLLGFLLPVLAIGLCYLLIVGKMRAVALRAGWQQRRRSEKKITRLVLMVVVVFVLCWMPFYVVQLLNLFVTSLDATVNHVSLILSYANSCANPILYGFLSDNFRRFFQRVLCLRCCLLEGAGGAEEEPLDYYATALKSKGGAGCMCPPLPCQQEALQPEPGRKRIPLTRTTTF
Assay [10] has as its target 5-hydroxytryptamine receptor 1B (Homo sapiens) (UniProt P28222). In words: Agonist activity at recombinant human 5-HT1B at 10 uM by GTPgamma[35S] binding-based assay relative to agonist.
Assay [11] deals with T1, Muscarinic acetylcholine receptor M1 (Homo sapiens). Briefly: Antagonist activity at recombinant human muscarinic M1 receptor assessed as inhibition of agonist-induced effect at 10 uM by aequorin reporter based assay.
Assay [12] addresses Vasopressin V1a receptor (Homo sapiens) (UniProt P37288). In words: Agonist activity at recombinant human V1A receptor at 10 uM by aequorin reporter based assay relative to agonist.

Sequence of 5-hydroxytryptamine receptor 2A (Homo sapiens) (P28223 whole entry): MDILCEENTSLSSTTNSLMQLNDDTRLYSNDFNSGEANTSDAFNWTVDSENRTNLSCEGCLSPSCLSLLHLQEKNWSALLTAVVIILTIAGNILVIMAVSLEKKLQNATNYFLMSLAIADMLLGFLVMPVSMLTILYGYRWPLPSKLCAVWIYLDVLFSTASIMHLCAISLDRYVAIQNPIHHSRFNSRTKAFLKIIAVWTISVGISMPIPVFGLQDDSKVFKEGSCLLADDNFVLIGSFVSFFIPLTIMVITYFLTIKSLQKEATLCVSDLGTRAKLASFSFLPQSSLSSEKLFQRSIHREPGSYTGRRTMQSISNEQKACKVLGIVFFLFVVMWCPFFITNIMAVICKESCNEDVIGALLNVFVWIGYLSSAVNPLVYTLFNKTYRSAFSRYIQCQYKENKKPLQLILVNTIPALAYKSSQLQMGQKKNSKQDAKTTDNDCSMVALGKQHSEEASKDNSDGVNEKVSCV
Sequence of 5-hydroxytryptamine receptor 1B (Homo sapiens) (P28222 whole entry): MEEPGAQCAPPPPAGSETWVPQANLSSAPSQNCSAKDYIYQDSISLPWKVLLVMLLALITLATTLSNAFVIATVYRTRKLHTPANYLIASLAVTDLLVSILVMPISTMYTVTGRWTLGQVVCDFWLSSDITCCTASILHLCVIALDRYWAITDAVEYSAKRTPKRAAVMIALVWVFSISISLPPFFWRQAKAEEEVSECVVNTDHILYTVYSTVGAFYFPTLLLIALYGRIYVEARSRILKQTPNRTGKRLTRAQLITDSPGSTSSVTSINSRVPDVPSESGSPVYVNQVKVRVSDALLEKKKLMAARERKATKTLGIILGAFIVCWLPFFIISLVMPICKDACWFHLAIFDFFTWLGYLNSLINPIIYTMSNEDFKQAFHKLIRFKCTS
Sequence of Vasopressin V1a receptor (Homo sapiens) (P37288 whole entry, looked up): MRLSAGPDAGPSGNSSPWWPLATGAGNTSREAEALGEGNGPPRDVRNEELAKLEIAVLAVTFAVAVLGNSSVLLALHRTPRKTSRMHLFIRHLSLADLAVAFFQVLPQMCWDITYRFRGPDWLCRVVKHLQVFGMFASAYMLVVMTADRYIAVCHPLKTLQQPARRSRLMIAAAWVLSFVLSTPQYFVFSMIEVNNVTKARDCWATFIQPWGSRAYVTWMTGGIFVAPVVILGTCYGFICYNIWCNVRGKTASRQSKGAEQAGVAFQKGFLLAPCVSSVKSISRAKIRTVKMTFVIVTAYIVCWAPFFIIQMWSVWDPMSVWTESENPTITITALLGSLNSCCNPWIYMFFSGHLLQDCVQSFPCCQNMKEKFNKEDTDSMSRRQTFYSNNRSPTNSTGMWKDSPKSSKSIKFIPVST

For the molecule `COc1ccc(C(=O)NCCCN(C)Cc2ccccc2)cc1`, the Activity was 0% in assay [1]; 0% in assay [2]; -1% in assay [3]; 8% in [4]; 0% in assay [8]; 7% in assay [10]. The Activity in [12] was found to be 0%. In addition, the inhibition in assay [5] is 4%; in assay [6], 25%; in [7] it was -7%; in assay [9] it was 25%; in [11], 20%.

Take `CN(CCNC(=O)c1ccc(Cl)cc1)Cc1ccccc1`: the Activity in [1] is 16%; in assay [2] it was 0%; in assay [3], -3%; in [4] it was 0%; in [8] it was 0%; in assay [10], 4%. For the same molecule, the Activity in [12] was determined as 0%. Besides, the inhibition in assay [5] was 22%; in assay [6], 13%; in [7], -4%; in [9] it was 21%; in assay [11], 69%.

For `CN(CCCNC(=O)c1ccc(Cl)cc1)CCc1ccccc1`, the Activity in [1] is 18%; in assay [2], 0%; in assay [3], -3%; in assay [4], 2%; in [8], 0%; in assay [10] it was 1%. Besides, the Activity in assay [12] turned out to be 0%. The inhibition in assay [5] is 41%; in assay [6], 18%; in [7] it was -5%; in assay [9] it was -3%; in assay [11], 86%.

With `CN(CCCNC(=O)c1cccc(Br)c1)Cc1ccccc1`, the Activity was 3% in assay [1]; 0% in assay [2]; -3% in assay [3]; 1% in assay [4]; 0% in assay [8]; 1% in assay [10]. For the same molecule, in assay [12], the Activity was -1%. Further, the inhibition is 58% in assay [5]; 33% in assay [6]; -2% in assay [7]; 21% in [9]; 96% in assay [11].

`CN(CCNC(=O)c1ccc([N+](=O)[O-])cc1)Cc1ccccc1`: the Activity in [1] was 0%; in assay [2], 0%; in assay [3], -1%; in assay [4] it was 3%; in [8] it was 0%; in assay [10] it was -10%. Besides, the Activity in assay [12] came out at 0%. For the same molecule, the inhibition in assay [5] was 18%; in assay [6], 26%; in [7] it was -5%; in assay [9], 30%; in [11], 31%.
